Reference: patent publication US20230312646A1, “ANTIBACTERIAL PEPTIDES” (priority 2020, published 2023)
Read-outs that look alike come from different tables or passages of the source. Numbered stars: 1 amine (or outer) side, 2 acyl side, 3 side chain; on linkers, the order of the positions; unused ones are H or OH. Square brackets hold non-standard residues; d marks the D form. Peptide text beside a SMILES is read from it. * marks the point of attachment. Acryloyl(3-(3-pyridyl),E) = O=C(/C=C/c1cccnc1)*; Phe(3,4-Cl2) = N[C@@H](Cc1ccc(Cl)c(Cl)c1)C(=O)O; Phe(3,4-F2) = N[C@@H](Cc1ccc(F)c(F)c1)C(=O)O; Oic = O=C(O)[C@@H]1C[C@@H]2CCCC[C@@H]2N1; Cinnamoyl(4-F) = O=C(/C=C/c1ccc(F)cc1)*; X5 = O=C([C@@H]1CC(O)CN1[*:1])[*:2]; Hydrocinnamoyl = O=C(CCc1ccccc1)*; NH(4-MeO-phenyl) = COc1ccc(N*)cc1; NMeR = CN[C@@H](CCCNC(=N)N)C(=O)O; X2 = O=C(CN(Cc1ccccn1)[*:1])[*:2]; NMeF = CN[C@@H](Cc1ccccc1)C(=O)O; tBuAla = CC(C)(C)C[C@H](N)C(=O)O; Cha = N[C@@H](CC1CCCCC1)C(=O)O; NMeD = CN[C@@H](CC(=O)O)C(=O)O; X1 = O=C(/C=C/c1ccc2ccccc2c1)*; NMeL = CN[C@@H](CC(C)C)C(=O)O; Phe(ol) = N[C@H](CO)Cc1ccccc1; Pip = O=C(O)[C@@H]1CCCCN1; CO = O=C([*:1])[*:2]; Sar = CNCC(=O)O

Molecular target: T1, Escherichia coli SC (^EcSC) (Escherichia coli, UniProt P0A988)
T1 construct: His tag (inferred from the pET15b vector and Ni-NTA purification) (N); made in house; host or cells: E. coli
T1 sequence (P0A988 whole entry): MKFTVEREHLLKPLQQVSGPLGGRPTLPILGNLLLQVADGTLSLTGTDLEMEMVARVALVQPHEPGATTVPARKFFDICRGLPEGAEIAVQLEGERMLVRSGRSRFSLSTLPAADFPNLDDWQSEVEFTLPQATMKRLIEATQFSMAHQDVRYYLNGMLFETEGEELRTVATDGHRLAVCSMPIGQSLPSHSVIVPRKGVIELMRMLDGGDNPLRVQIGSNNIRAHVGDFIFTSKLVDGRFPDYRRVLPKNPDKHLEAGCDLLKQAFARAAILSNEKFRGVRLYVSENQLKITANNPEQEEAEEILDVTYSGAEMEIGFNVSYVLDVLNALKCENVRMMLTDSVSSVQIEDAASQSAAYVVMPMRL
Test: biochemical
Assay type: binding
Details: for ΔG (kcal mol^-1): ITC at 25° C.; for Kd: Kd (nM); for Kd / ΔG (kcal/mol): ITC at 298.15 K (25° C.); for koff, fold higher than for peptide 1 (P1): compared to P1
Description: The procedure has been described previously (Wolff, P.; Oliéric, V.; Briand, J. P.; Chaloin, O.; Dejaegere, A.; Dumas, P.; Ennifar, E.; Guichard, G.; Wagner, J.; Burnouf, D. Y., Structure-Based Design of Short Peptide Ligands Binding onto the E. coli Processivity Ring. J. Med. Chem. 2011, 54 (13), 4627-4637). Briefly, E.coli cells were transformed with plasmids pET15b containing the dnaN gene from E. coli and were grown in LB at 37° C. to OD 0.5, then induced by IPTG (0.1 mM) at 28° C. overnight. dnaN proteins fractions were first enriched on a Ni-NTA column, eluted with a histidine step (300 mM) and further purified on a Source Q column in buffer containing 20 mM Tris HCI pH 7.5, 0.5 mM EDTA and 10% (v/v) glycerol, using a gradient from 0 to 0.5 M NaCl. After a final ultracentrifugation (45 K, 1 h, 20° C.), soluble proteins were concentrated on a Centricon 30 K (Millipore) in the same buffer and stored at 4° C. in 2 M ammonium sulfate. Buffer exchange was performed on Centrikon 10 K at 4° C. before use and protein quality was assessed by DLS.
ITC experiments were performed using an iTC200 or a PEAQ-ITC instrument (Microcal Malvern Panalytical). Peptides (300 or 600 µM) were titrated at 25° C. by sequential injections (usually 2 µl each) into an SC solution (30 or 60 µM). Data were corrected for heat of injection by subtracting the signal of the titration of peptides into proteiN-free buffer solution (Hepes 10 mM pH 7.4, NaCl 0.15 M, EDTA 3 mM). Each titration was performed at least twice. Analyses of experimental data were performed following a classical treatment with the AFFINImeter software (https://www.affinimeter.com; S4S, Santiago de Compostela, Spain). In addition, kinetic information was obtained in some cases with kinITC as implemented in the software AFFINImeter.
All newly synthesized peptides were tested for their interaction with ^EcSC by ITC at 25° C. As a general rule, all thermodynamic profiles reveal an exothermic interaction, and a non-favorable entropic component. The resulting negative Gibb’s free energies characterize a spontaneous interaction. The analysis of raw data by the Affinimeter® software also gave access to kinetics rate constant of the interaction.

SMILES | ΔG (kcal mol^-1) | Kd | kon (read-out: kon (M^-1 s^-1)) | ΔG (kcal/mol) | kon (read-out: kon (M^-1.s^-1)) | koff, fold higher than for peptide 1 (P1)
COc1ccc(NC(=O)N[C@@H](CCC(N)=O)C(=O)N[C@@H](CC2CCCCC2)C(=O)N(C)[C@@H](CC(=O)O)C(=O)N[C@@H](CC(C)C)C(=O)N[C@@H](Cc2ccc(Cl)c(Cl)c2)C(=O)O)cc1 [P39] ({NH(4-MeO-phenyl)-CO}-Q[Cha][NMeD]L[Phe(3,4-Cl2)]-OH) | -9.0 (± 0.01) kcal mol^-1 | 266 nM | 42000 M⁻¹ s⁻¹ | – | – | –
CC(C)C[C@H](NC(=O)[C@H](CC(=O)O)N(C)C(=O)[C@H](CC1CCCCC1)NC(=O)[C@H](CCC(N)=O)NC(=O)/C=C/c1ccc(F)cc1)C(=O)N[C@@H](Cc1ccc(F)c(F)c1)C(=O)O [P41] ({Cinnamoyl(4-F)}-Q[Cha][NMeD]L[Phe(3,4-F2)]-OH) | – | 99 nM | 51000 M⁻¹ s⁻¹ | – | – | –
CC(=O)N[C@@H](CCC(N)=O)C(=O)N[C@@H](CC1CCCCC1)C(=O)N[C@@H](CC(=O)O)C(=O)N[C@@H](CC(C)C)C(=O)N1CCCC[C@H]1C(=O)N[C@@H](CC(C)C)C(=O)O [P34] (Ac-Q[Cha]DL[Pip]L-OH) | – | 243 nM | – | -9.0 (± 0.1) kcal/mol | 43000 M⁻¹ s⁻¹ | –
CC(=O)N[C@@H](CCC(N)=O)C(=O)N[C@@H](CC1CCCCC1)C(=O)N[C@H](C(=O)N[C@@H](CC(C)C)C(=O)N[C@@H](Cc1ccccc1)C(=O)O)[C@@H](C)O [Asp to Thr substitution] (Ac-Q[Cha]TLF-OH) | – | 180 nM | – | -9.2 (+/- 0.1) kcal/mol | – | –
CC(=O)N[C@@H](CCC(N)=O)C(=O)N[C@@H](CC1CCCCC1)C(=O)N(C)[C@@H](CC(=O)O)C(=O)N[C@@H](CC(C)C)C(=O)N[C@@H](Cc1ccc(F)c(F)c1)C(=O)O [P40] (Ac-Q[Cha][NMeD]L[Phe(3,4-F2)]-OH) | -9.3 (± 0.02) kcal mol^-1 | 148 nM | 56000 M⁻¹ s⁻¹ | – | – | –
CC(=O)N[C@@H](CCC(N)=O)C(=O)N[C@@H](CC1CCCCC1)C(=O)N[C@@H](CC(=O)O)C(=O)N[C@@H](CC(C)C)C(=O)N(C)[C@@H](Cc1ccccc1)C(=O)O [P7] (Ac-Q[Cha]DL[NMeF]-OH) | – | > 1000 nM | – | -7.1 (± 0.1) kcal/mol | 10000 M⁻¹ s⁻¹ | –
CC(=O)N[C@@H](CCC(N)=O)C(=O)N[C@@H](CC1CCCCC1)C(=O)N[C@@H](CC(=O)O)C(=O)N[C@@H](CC(C)C)C(=O)N1[C@H](C(=O)N[C@@H](Cc2ccccc2)C(=O)O)C[C@@H]2CCCC[C@@H]21 [P48] (Ac-Q[Cha]DL[Oic]F-OH) | -9.5 (± 0.3) kcal mol^-1 | 120 nM | 55000 M⁻¹ s⁻¹ | – | – | –
CC(=O)N[C@@H](CCC(N)=O)C(=O)N[C@@H](CC1CCCCC1)C(=O)N[C@@H](CC(=O)O)C(=O)N[C@@H](CC(C)C)C(=O)NCC(=O)N[C@@H](CC(C)(C)C)C(=O)O [P28] (Ac-Q[Cha]DLG[tBuAla]-OH) | – | 2690 nM | – | -7.60 (± 0.06) kcal/mol | 11000 M⁻¹ s⁻¹ | –
CC(=O)N[C@@H](CCCNC(=N)N)C(=O)N[C@@H](CCC(N)=O)C(=O)N[C@@H](CC1CCCCC1)C(=O)N[C@@H](CC(=O)O)C(=O)N[C@@H](CC(C)C)C(=O)N[C@@H](Cc1ccccc1)C(=O)O [P12] (Ac-RQ[Cha]DLF-OH) | – | 498 nM | – | -8.60 (± 0.08) kcal/mol | 37000 M⁻¹ s⁻¹ | 2.5 fold
CC(=O)N[C@@H](CCC(N)=O)C(=O)N[C@@H](CC1CCCCC1)C(=O)N[C@@H](CC(=O)O)C(=O)N[C@@H](CC(C)C)C(=O)N[C@H](CO)Cc1ccccc1 [P24] (Ac-Q[Cha]DL[Phe(ol)]) | – | 751 nM | – | -8.4 (± 0.1) kcal/mol | 26000 M⁻¹ s⁻¹ | –
CC(=O)N[C@@H](CCC(N)=O)C(=O)N[C@@H](CC1CCCCC1)C(=O)N[C@@H](CC(=O)O)C(=O)N[C@@H](CC(C)C)C(=O)NCC(=O)N[C@@H](CC(C)C)C(=O)O [P27] (Ac-Q[Cha]DLGL-OH) | – | 682 nM | – | -8.4 (± 0.1) kcal/mol | 26000 M⁻¹ s⁻¹ | –
CC(=O)N[C@@H](CCC(N)=O)C(=O)N[C@@H](CC1CCCCC1)C(=O)N[C@@H](CC(=O)O)C(=O)N[C@@H](CC(C)C)C(=O)N1CC(O)C[C@H]1C(=O)N[C@@H](CC(C)C)C(=O)O (stereo partly drawn) [P33] (Ac-Q[Cha]DL[X5]L-OH) | – | 369 nM | – | -8.8 (± 0.2) kcal/mol | 44000 M⁻¹ s⁻¹ | –
CC(C)C[C@H](NC(=O)[C@H](CC(=O)O)NC(=O)[C@H](CC1CCCCC1)NC(=O)[C@H](CCC(N)=O)NC(=O)/C=C/c1ccc2ccccc2c1)C(=O)N[C@@H](Cc1ccccc1)C(=O)O [P20] (X1-Q[Cha]DLF-OH) | – | 89 nM | – | – | 65000 M⁻¹ s⁻¹ | –
CC(C)C[C@H](NC(=O)[C@H](CC(=O)O)NC(=O)[C@H](CC1CCCCC1)NC(=O)[C@H](CCC(N)=O)NC(=O)CNCc1ccccn1)C(=O)N[C@@H](Cc1ccccc1)C(=O)O [P8] (H-[X2]Q[Cha]DLF-OH) | – | 172 nM | – | – | 34000 M⁻¹ s⁻¹ | –
CC(=O)N[C@@H](CCC(N)=O)C(=O)N[C@@H](CC1CCCCC1)C(=O)N[C@@H](CC(=O)O)C(=O)N[C@@H](CC(C)C)C(=O)NCC(=O)N[C@@H](Cc1ccccc1)C(=O)O [P29] (Ac-Q[Cha]DLGF-OH) | – | 313 nM | – | -8.9 (± 0.1) kcal/mol | 32000 M⁻¹ s⁻¹ | –
CC(=O)N[C@@H](CCC(N)=O)C(=O)N[C@@H](CC1CCCCC1)C(=O)N(C)[C@@H](CC(=O)O)C(=O)N[C@@H](CC(C)C)C(=O)N1CCC[C@H]1C(=O)N[C@@H](Cc1ccccc1)C(=O)O [P45] (Ac-Q[Cha][NMeD]LPF-OH) | -9.7 (± 0.2) kcal mol^-1 | 81 nM | 60000 M⁻¹ s⁻¹ | – | – | –
CC(=O)N[C@@H](CCC(N)=O)C(=O)N[C@@H](CC1CCCCC1)C(=O)N[C@@H](CC(=O)O)C(=O)N[C@@H](CC(C)C)C(=O)N(C)CC(=O)N[C@@H](CC(C)C)C(=O)O [P30] (Ac-Q[Cha]DL[Sar]L-OH) | – | 583 nM | – | -8.5 (± 0.2) kcal/mol | 40000 M⁻¹ s⁻¹ | –
CC(=O)N(C)[C@@H](CCCNC(=N)N)C(=O)N[C@@H](CCC(N)=O)C(=O)N[C@@H](CC1CCCCC1)C(=O)N[C@@H](CC(=O)O)C(=O)N[C@@H](CC(C)C)C(=O)N[C@@H](Cc1ccccc1)C(=O)O [P13] (Ac-[NMeR]Q[Cha]DLF-OH) | – | 2130 nM | – | -7.7 (± 0.1) kcal/mol | 21000 M⁻¹ s⁻¹ | 4 fold
CC(C)C[C@H](NC(=O)[C@H](CC(=O)O)NC(=O)[C@H](CC1CCCCC1)NC(=O)[C@H](CCC(N)=O)NC(=O)CCc1ccccc1)C(=O)N[C@@H](Cc1ccccc1)C(=O)O [P19] (Hydrocinnamoyl-Q[Cha]DLF-OH) | – | 123 nM | – | – | 55000 M⁻¹ s⁻¹ | –
COc1ccc(NC(=O)N[C@@H](CCC(N)=O)C(=O)N[C@@H](CC2CCCCC2)C(=O)N[C@@H](CC(=O)O)C(=O)N[C@@H](CC(C)C)C(=O)N[C@@H](Cc2ccccc2)C(=O)O)cc1 [P22] ({NH(4-MeO-phenyl)-CO}-Q[Cha]DLF-OH) | – | 73 nM | – | – | 40000 M⁻¹ s⁻¹ | –
CC(=O)N[C@@H](CCC(N)=O)C(=O)N[C@@H](CC1CCCCC1)C(=O)N[C@@H](CC(=O)O)C(=O)N(C)[C@@H](CC(C)C)C(=O)N[C@@H](Cc1ccccc1)C(=O)O [P6] (Ac-Q[Cha]D[NMeL]F-OH) | – | > 1000 nM | – | -5.2 (± 0.2) kcal/mol | – | –
CC(C)C[C@H](NC(=O)[C@@H]1CCCN1C(=O)[C@H](CC(C)C)NC(=O)[C@H](CC(=O)O)N(C)C(=O)[C@H](CC1CCCCC1)NC(=O)[C@H](CCC(N)=O)NC(=O)/C=C/c1cccnc1)C(=O)O [P44] ({Acryloyl(3-(3-pyridyl),E)}-Q[Cha][NMeD]LPL-OH) | -9.2 (± 0.1) kcal mol^-1 | 177 nM | 63000 M⁻¹ s⁻¹ | – | – | –
CC(=O)N[C@@H](CCC(N)=O)C(=O)N[C@@H](CC1CCCCC1)C(=O)N[C@@H](CC(=O)O)C(=O)N[C@@H](CC(C)C)C(=O)N[C@@H](Cc1ccccc1)C(N)=O [P26] (Ac-Q[Cha]DLF-NH2) | – | 268 nM | – | -9.0 (± 0.1) kcal/mol | 33000 M⁻¹ s⁻¹ | –
